In PMC10574094, “Discovery of a SHP2 Degrader with In Vivo Anti-Tumor Activity” (Molecules, 2023):
Residues, ends and D or L forms follow the SMILES beside them. *: point of attachment. Cbz = O=C(OCc1ccccc1)*

Tests used:
SHP2 = target: T1, SHP2 (Homo sapiens, UniProt Q06124); assay: SHP2 degradation by Western blotting in HEK293 cells; format: cell-based; parameters: endogenous in cells; host or cells: HEK293; conditions: for effect on P9-induced SHP2 degradation: HEK293, 16 h, 250 nM P9 in combination with 1 µM 3, 10 µM MG132, 1 µM MLN4924, 40 µM VHL-2 or 40 µM Lenalidomide; for SHP2 degradation (in words) / Degradation at 1 μM / Degradation at 10 μM: HEK293 cells; for SHP2 degradation (in words): 1 and 10 µM; for Degradation at 1 μM / Degradation at 10 μM: 16 h treatment
T1 sequence (Q06124 1-593): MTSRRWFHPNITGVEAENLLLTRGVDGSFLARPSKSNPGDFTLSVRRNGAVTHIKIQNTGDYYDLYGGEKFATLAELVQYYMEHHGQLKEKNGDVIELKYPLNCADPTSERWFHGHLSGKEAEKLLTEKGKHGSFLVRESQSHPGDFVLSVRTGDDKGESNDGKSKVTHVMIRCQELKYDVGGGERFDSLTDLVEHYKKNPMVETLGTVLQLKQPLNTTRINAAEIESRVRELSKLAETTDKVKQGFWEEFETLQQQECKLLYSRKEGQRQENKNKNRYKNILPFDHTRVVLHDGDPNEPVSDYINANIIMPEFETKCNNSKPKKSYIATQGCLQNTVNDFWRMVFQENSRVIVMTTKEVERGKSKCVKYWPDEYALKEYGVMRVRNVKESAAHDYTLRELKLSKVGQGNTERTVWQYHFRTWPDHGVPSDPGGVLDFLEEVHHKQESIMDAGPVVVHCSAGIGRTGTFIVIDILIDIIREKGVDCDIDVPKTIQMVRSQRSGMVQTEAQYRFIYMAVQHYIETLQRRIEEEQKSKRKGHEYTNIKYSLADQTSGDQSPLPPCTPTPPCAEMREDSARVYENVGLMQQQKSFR
Procedure: HEK293, SKBR3, U2OS, MCF7 and A549 cells were grown in DMEM supplemented with 10% FBS, penicillin (50 units/mL), and streptomycin (50 μg/mL) in a 37 °C incubator containing 5% CO2. […] For western-blot analysis, protein samples were separated by SDS-PAGE, transferred to nitrocellulose membranes, and incubated overnight at 4 °C with corresponding primary antibodies diluted in 5% BSA in phosphate-buffered saline Tween (PBST). SuperSignal™ West Pico PLUS (PI34580; Thermo Scientific) was used to visualize the antibodies in the bioanalytical imaging system (Azure Biosystems c500). […] Anti-PTP1B (ab244207) antibody was purchased from Abcam. For colony formation assay, a total of approximately 200–500 cells were seeded to each well in a 12-well plate.
Supplemental Figures, Schemes, and Tables:
Figure S1. Western blots of degradation assay for PROTAC screening. (A) Degradation assay of
compo un ds i n Table 1 at 1 μM fo r 16 hours in H EK29 3 cells. (B) Degradation assay of compounds in Table
1 at 10 μM for 16 hours in HEK293 cells. (C) Degradation assay of compounds in Table 2 at 1 μM for 16

full-length SHP2 (1-528) = target: T2, full-length SHP2 (1-528) (Homo sapiens, UniProt Q06124); assay: SHP2 allosteric inhibition assay (DiFMUP substrate); format: biochemical; conditions: full length SHP2, enzymatic assay
T2 construct: The SHP2 protein (Aa 1–528) was cloned into a pET-21a(+) vector; His; made in house; host or cells: E. coli BL21(DE3)
T2 sequence (Q06124 1-528): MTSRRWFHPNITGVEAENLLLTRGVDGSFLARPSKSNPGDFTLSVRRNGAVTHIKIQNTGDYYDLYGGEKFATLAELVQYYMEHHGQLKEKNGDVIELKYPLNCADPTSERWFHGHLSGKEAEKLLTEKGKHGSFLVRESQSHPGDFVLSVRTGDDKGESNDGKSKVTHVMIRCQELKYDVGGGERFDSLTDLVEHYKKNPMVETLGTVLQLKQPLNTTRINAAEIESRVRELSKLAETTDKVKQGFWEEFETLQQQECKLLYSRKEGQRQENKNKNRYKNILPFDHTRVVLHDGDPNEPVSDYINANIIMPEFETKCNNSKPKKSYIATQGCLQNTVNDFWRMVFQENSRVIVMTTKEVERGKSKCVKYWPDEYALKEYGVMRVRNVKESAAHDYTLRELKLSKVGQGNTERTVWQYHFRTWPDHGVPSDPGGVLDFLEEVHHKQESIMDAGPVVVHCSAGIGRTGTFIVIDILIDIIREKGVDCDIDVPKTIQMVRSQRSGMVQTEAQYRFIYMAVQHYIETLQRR
Procedure: The SHP2 protein (Aa 1–528) was cloned into a pET-21a(+) vector. Bacterial BL21(DE3) (Novagen) was used as an expression host, and the induction of protein expression was carried out in LB media with 1 mM IPTG at 18 °C overnight. Cell pellets were stored at −80 °C for subsequent protein purification. Protein purification was conducted at 4 °C. Frozen cell pellets were lysed by sonication in 40 mL cold lysis buffer (50 mM Tris-HCl, pH 8.0, 150 mM NaCl, 5 mM imidazole, and 1 mM PMSF) per liter cell pellet. Cell lysates were clarified by centrifuging for 15 min at 6000 rpm. The supernatant was incubated with HisPur Ni-NTA resin (Thermo Scientific, Waltham, MA, USA) for 2 h, and then packed onto a column and washed with 50 resin volume of buffer A (50 mM Tris-HCl, pH 8.0, 500 mM NaCl, 5 mM imidazole). The HIS-tagged proteins were eluted with Buffer B (50 mM Tris-HCl, pH = 8.0, 500 mM NaCl, 300 mM imidazole,). Pooled HIS-protein-containing fractions were concentrated, loaded onto a HiLoad 26/600 Superdex 75 column (GE Healthcare Biosciences, Piscataway, NJ, USA), and eluted with storage buffer (50 mM Tris-HCl, pH 8.0, 150 mM NaCl, 1 mM DTT, 10% glycerol). Proteins used for inhibition assays were purified using Ni-NTA resin (Qiagen, Hilden, Germany) followed by size exclusion column chromatography (ÄKTA pure, Cytiva, Marlborough, MA, USA) and the purity was determined to be >95% by SDS-PAGE and Coomassie staining. The protein was aliquoted and stored at −80 °C.
The catalytic activity of SHP2 (1-528) was assayed with 6,8-Difluoro-4-Methylumbelliferyl Phosphate (DiFMUP, Invitrogen, cat# D6567) as a substrate in 3,3-Dimethylglutaric acid (DMG) buffer (50 mM DMG, pH 7.0, 1 mM EDTA, 18 mM NaCl, 0.01% Triton X-100) at 25 °C. To determine the IC50 values, the assays were performed in 96-well plates (Corning Costar 3915). Series diluted compounds were incubated with 0.5 nM of SHP2 and 0.5 μM of peptide IRS1_pY1172(dPEG8)pY1222 (sequence H2N-LN(pY)IDLDLV(dPEG8)LST(pY)ASINFQK-amide). After 30 min incubation at room temperature, the substrate DiFMUP was added to the reaction (200 μM final concentration, total reaction volume is […]) and incubated at 25 °C for 10 min. The reaction was then quenched by adding 40 μL of 160 μM bpV(Phen) (Sigma–Aldrich, cat# SML0889) solution. The fluorescence signal was monitored with a CLARIOstar Plus Microplate Spectrophotometer (BMG Labtech) using excitation and emission wavelengths of 340 and 450 nm, respectively. The inhibitordose-response curves were analyzed using normalized IC50 regression curve fitting with control-based normalization. Data were fitted using Prism GraphPad 9.2.0.

CC(C)C[C@@H](C=O)NC(=O)[C@H](CC(C)C)NC(=O)[C@H](CC(C)C)NC(=O)OCc1ccccc1 [MG-132, reference compound] (Cbz-Leu-Leu-Leu-aldehyde) was tested, and the “effect on P9-induced SHP2 degradation” value (SHP2) was “markedly reduced the extent of SHP2 degradation”.

For NS(=O)(=O)OC[C@@H]1C[C@@H](n2ccc3c(N[C@H]4CCc5ccccc54)ncnc32)C[C@@H]1O [MLN-4924, reference compound], the “effect on P9-induced SHP2 degradation” value (SHP2) was “markedly reduced the extent of SHP2 degradation”.

Cc1ncsc1-c1ccc([C@H](C)NC(=O)[C@@H]2C[C@@H](O)CN2C(=O)[C@@H](NC(=O)CCOCCOCCOCCNC(=O)CCCCCC2(CN)CCN(c3cnc(Sc4cccc(Cl)c4Cl)c(N)n3)CC2)C(C)(C)C)cc1 [P3, (2S,4R)-1-((S)-22-(1-(6-amino-5-((2,3-dichlorophenyl)thio)pyrazin-2-yl)-4-(aminomethyl)piperidin-4-yl)-2-(tert-butyl)-4,17-dioxo-7,10,13-trioxa-3,16-diazadocosanoyl)-4-hydroxy-N-((S)-1-(4-(4-methylthiazol-5-yl)phenyl)ethyl)pyrrolidine-2-carboxamide] was tested, and the “SHP2 degradation (in words)” value (SHP2) was “did not induce significant degradation of SHP2”, the “Degradation at 1 μM” value (SHP2) was under 10% and the “Degradation at 10 μM” value (SHP2) was under 10%. The IC50 (full-length SHP2 (1-528)) was 0.158 ± 0.0265 µM.

In the case of Cc1ncsc1-c1ccc([C@H](C)NC(=O)[C@@H]2C[C@@H](O)CN2C(=O)[C@@H](NC(=O)CCOCCOCCOCCOCCNC(=O)CCCCCC2(CN)CCN(c3cnc(Sc4cccc(Cl)c4Cl)c(N)n3)CC2)C(C)(C)C)cc1 [P4, (2S,4R)-1-((S)-25-(1-(6-amino-5-((2,3-dichlorophenyl)thio)pyrazin-2-yl)-4-(aminomethyl)piperidin-4-yl)-2-(tert-butyl)-4,20-dioxo-7,10,13,16-tetraoxa-3,19-diazapentacosanoyl)-4-hydroxy-N-((S)-1-(4-(4-methylthiazol-5-yl)phenyl)ethyl)pyrrolidine-2-carboxamide], the “SHP2 degradation (in words)” value (SHP2) is reported as “did not induce significant degradation of SHP2”, the “Degradation at 1 μM” value (SHP2) is reported as under 10% and the “Degradation at 10 μM” value (SHP2) is reported as under 10%. The IC50 (full-length SHP2 (1-528)) was 0.156 ± 0.0158 µM.

With Cc1ncsc1-c1ccc([C@H](C)NC(=O)[C@@H]2C[C@@H](O)CN2C(=O)[C@@H](NC(=O)CCOCCOCCOCCOCCOCCNC(=O)CCCCCC2(CN)CCN(c3cnc(Sc4cccc(Cl)c4Cl)c(N)n3)CC2)C(C)(C)C)cc1 [P5, (2S,4R)-1-((S)-28-(1-(6-amino-5-((2,3-dichlorophenyl)thio)pyrazin-2-yl)-4-(aminomethyl)piperidin-4-yl)-2-(tert-butyl)-4,23-dioxo-7,10,13,16,19-pentaoxa-3,22-diazaoctacosanoyl)-4-hydroxy-N-((S)-1-(4-(4-methylthiazol-5-yl)phenyl)ethyl)pyrrolidine-2-carboxamide] the “SHP2 degradation (in words)” value (SHP2) was “did not induce significant degradation of SHP2”, the “Degradation at 1 μM” value (SHP2) was under 10% and the “Degradation at 10 μM” value (SHP2) was under 10%. For the same compound, the IC50 (full-length SHP2 (1-528)) was 0.166 ± 0.0119 µM.

Work on Cc1ncsc1-c1ccc([C@H](C)NC(=O)[C@@H]2C[C@@H](O)CN2C(=O)[C@@H](NC(=O)CCCCCCCN2CCN(C(=O)CCCCCC3(CN)CCN(c4cnc(Sc5cccc(Cl)c5Cl)c(N)n4)CC3)CC2)C(C)(C)C)cc1 [P7, (2S,4R)-1-((S)-2-(8-(4-(6-(1-(6-amino-5-((2,3-dichlorophenyl)thio)pyrazin-2-yl)-4-(aminomethyl)piperidin-4-yl)hexanoyl)piperazin-1-yl)octanamido)-3,3-dimethylbutanoyl)-4-hydroxy-N-((S)-1-(4-(4-methylthiazol-5-yl)phenyl)ethyl)pyrrolidine-2-carboxamide] yielded an IC50 (full-length SHP2 (1-528)) of 0.119 ± 0.0254 µM.

In the case of Cc1ncsc1-c1ccc([C@H](C)NC(=O)[C@@H]2C[C@@H](O)CN2C(=O)[C@@H](NC(=O)CCCCCCCCN2CCN(C(=O)CCCCCC3(CN)CCN(c4cnc(Sc5cccc(Cl)c5Cl)c(N)n4)CC3)CC2)C(C)(C)C)cc1 [P8, (2S,4R)-1-((S)-2-(9-(4-(6-(1-(6-amino-5-((2,3-dichlorophenyl)thio)pyrazin-2-yl)-4-(aminomethyl)piperidin-4-yl)hexanoyl)piperazin-1-yl)nonanamido)-3,3-dimethylbutanoyl)-4-hydroxy-N-((S)-1-(4-(4-methylthiazol-5-yl)phenyl)ethyl)pyrrolidine-2-carboxamide], the IC50 (full-length SHP2 (1-528)) is reported as 0.104 ± 0.0093 µM.

Cc1ncsc1-c1ccc([C@H](C)NC(=O)[C@@H]2C[C@@H](O)CN2C(=O)[C@@H](NC(=O)CCCCCCCCCCN2CCN(C(=O)CCCCCC3(CN)CCN(c4cnc(Sc5cccc(Cl)c5Cl)c(N)n4)CC3)CC2)C(C)(C)C)cc1 [P10, (2S,4R)-1-((S)-2-(11-(4-(6-(1-(6-amino-5-((2,3-dichlorophenyl)thio)pyrazin-2-yl)-4-(aminomethyl)piperidin-4-yl)hexanoyl)piperazin-1-yl)undecanamido)-3,3-dimethylbutanoyl)-4-hydroxy-N-((S)-1-(4-(4-methylthiazol-5-yl)phenyl)ethyl)pyrrolidine-2-carboxamide] showed an IC50 (full-length SHP2 (1-528)) of 0.111 ± 0.0082 µM.

NCC1(CCCCCC(=O)O)CCN(c2cnc(Sc3cccc(Cl)c3Cl)c(N)n2)CC1 [compound 4] gave an IC50 (full-length SHP2 (1-528)) of 0.09 µM.

For Nc1cccc2c1CN(C1CCC(=O)NC1=O)C2=O (stereo not shown) [lenalidomide, reference compound], the “effect on P9-induced SHP2 degradation” value (SHP2) was “did not affect the SHP2 degradation induced by P9”.
